Where two headings read alike, the source gives them in different places.
Experiment: Liquid dish neat product liquid-air partition coefficient
Type: physicochemical
[1] = class code letter within Comment Code

Row | Structure (SMILES) | Log of liquid dish neat product liquid-air partition coefficient (Comment Code K/L) | Comment Code: Log of liquid dish neat product liquid-air partition coefficient (code letters K, L) | further results
1 | C=C1CCCC(C)(C)C2C=C(C)CCC12 (stereo not shown) [Material 707] | K (Log of liquid dish neat product liquid-air partition coefficient greater than or equal to −7) |  | 
2 | CC(C=O)Cc1ccc2c(c1)OCO2 (stereo not shown) [Material 288] |  |  | Log of liquid dish neat product liquid-air partition coefficient (Comment Code K/L) [1]: K (Log of liquid dish neat product liquid-air partition coefficient greater than or equal to −7)
3 | CC1(CO)CC1CC1CC2CC2(C)C1(C)C (stereo not shown) [Material 185] |  | K (Log of liquid dish neat product liquid-air partition coefficient greater than or equal to −7) | Log of liquid dish neat product liquid-air partition coefficient (Comment Code K/L) [1]: K (Log of liquid dish neat product liquid-air partition coefficient greater than or equal to −7)
4 | CC(O)CCC1CCCCC1 (stereo not shown) [Material 699] |  | K (Log of liquid dish neat product liquid-air partition coefficient greater than or equal to −7) | 
5 | CC(C)(O)CCc1ccccc1 [Material 639] | K (Log of liquid dish neat product liquid-air partition coefficient greater than or equal to −7) |  | 
6 | CCC=CCCC=CCO [Material 865] | K (Log of liquid dish neat product liquid-air partition coefficient greater than or equal to −7) |  | 
7 | CCCCCCCCCCCC(=O)OC(C)C [Material 197] |  |  | Log of liquid dish neat product liquid-air partition coefficient (Comment Code K/L) [1]: K (Log of liquid dish neat product liquid-air partition coefficient greater than or equal to −7)
8 | COc1ccc(C=O)cc1OC [Material 1118] |  | K (Log of liquid dish neat product liquid-air partition coefficient greater than or equal to −7) | 
9 | CCCOC(=O)[C@H](C)OC(C)(C)CC [Material 1030] |  | K (Log of liquid dish neat product liquid-air partition coefficient greater than or equal to −7) | 
10 | C/C=C1/CC2CC1C1CCC(=O)OC21 (stereo not shown) [Material 353] |  | K (Log of liquid dish neat product liquid-air partition coefficient greater than or equal to −7) | Log of liquid dish neat product liquid-air partition coefficient (Comment Code K/L) [1]: K (Log of liquid dish neat product liquid-air partition coefficient greater than or equal to −7)
11 | CC1=C(C/C=C(\C)C=O)C(C)(C)CCC1 [Material 602] |  | K (Log of liquid dish neat product liquid-air partition coefficient greater than or equal to −7) | 
12 | COC1(C)CCC23CC1C(C)(C)C2CCC3C (stereo not shown) [Material 565] | K (Log of liquid dish neat product liquid-air partition coefficient greater than or equal to −7) | K (Log of liquid dish neat product liquid-air partition coefficient greater than or equal to −7) | 
13 | CCOC1CCC(C(C)(C)CC)CC1 (stereo not shown) [Material 12] |  | K (Log of liquid dish neat product liquid-air partition coefficient greater than or equal to −7) | 
14 | C=C(C=O)C(C)CCC=C(C)C (stereo not shown) [Material 819] |  | K (Log of liquid dish neat product liquid-air partition coefficient greater than or equal to −7) | 
15 | CC1C2CC(CC2C2CCC(O)CC2)C1(C)C (stereo not shown) [Material 230] |  | K (Log of liquid dish neat product liquid-air partition coefficient greater than or equal to −7) | Log of liquid dish neat product liquid-air partition coefficient (Comment Code K/L) [1]: K (Log of liquid dish neat product liquid-air partition coefficient greater than or equal to −7)
16 | O=Cc1ccc2c(c1)OCO2 [Material 287] |  | K (Log of liquid dish neat product liquid-air partition coefficient greater than or equal to −7) | 
17 | CC1CCOC(c2ccccc2)C1 (stereo not shown) [Material 420] |  | K (Log of liquid dish neat product liquid-air partition coefficient greater than or equal to −7) | 
18 | COC(Cc1ccccc1)OC [Material 627] | K (Log of liquid dish neat product liquid-air partition coefficient greater than or equal to −7) | K (Log of liquid dish neat product liquid-air partition coefficient greater than or equal to −7) | 
19 | CCC(=O)N(CC)c1cccc(C)c1 [Material 755] |  | K (Log of liquid dish neat product liquid-air partition coefficient greater than or equal to −7) | 
20 | C[C@H]1[C@@H]2C[C@H](C[C@@]13C=CC(=O)CC3)C2(C)C [Material 1143] |  | K (Log of liquid dish neat product liquid-air partition coefficient greater than or equal to −7) | Comment Code: Log of liquid dish neat product liquid-air partition coefficient (codes K/L of the Comment Code, Table 1): K (Log of liquid dish neat product liquid-air partition coefficient greater than or equal to −7)
21 | CC1C(=O)CC2(C)CCCC(C)(C)C23CC13 (stereo not shown) [Material 804] | K (Log of liquid dish neat product liquid-air partition coefficient greater than or equal to −7) | K (Log of liquid dish neat product liquid-air partition coefficient greater than or equal to −7) | 
22 | CC(C=O)Cc1cccc(C(C)(C)C)c1 (stereo not shown) [Material 134] |  |  | Log of liquid dish neat product liquid-air partition coefficient (Comment Code K/L) [1]: K (Log of liquid dish neat product liquid-air partition coefficient greater than or equal to −7)

Row | Structure (SMILES) | Log of liquid dish neat product liquid-air partition coefficient (Comment Code K/L) | Comment Code: Log of liquid dish neat product liquid-air partition coefficient (code letters K, L) | further results
23 | CC(CCO)CCCC(C)(C)O (stereo not shown) [Material 249] |  |  | Log of liquid dish neat product liquid-air partition coefficient (Comment Code K/L) [1]: K (Log of liquid dish neat product liquid-air partition coefficient greater than or equal to −7)
24 | CCCC(=O)OC1CC2CC1C1CC=CC21 (stereo not shown) [Material 484] |  | K (Log of liquid dish neat product liquid-air partition coefficient greater than or equal to −7) | Log of liquid dish neat product liquid-air partition coefficient (Comment Code K/L) [1]: K (Log of liquid dish neat product liquid-air partition coefficient greater than or equal to −7)
25 | C=CC(C)(CCC=C(C)C)OC=O (stereo not shown) [Material 150] |  | K (Log of liquid dish neat product liquid-air partition coefficient greater than or equal to −7) | 
26 | CCC=CCC=CC=CC(=O)OCC [Material 1000] | K (Log of liquid dish neat product liquid-air partition coefficient greater than or equal to −7) |  | 
27 | C/C=C\c1ccc(O)c(OC)c1 [Material 528] |  | K (Log of liquid dish neat product liquid-air partition coefficient greater than or equal to −7) | 
28 | CC(=O)O[C@]1(C)CC[C@@]23C[C@@H]1C(C)(C)[C@@H]2CC[C@H]3C [Material 567] | K (Log of liquid dish neat product liquid-air partition coefficient greater than or equal to −7) | K (Log of liquid dish neat product liquid-air partition coefficient greater than or equal to −7) | 
29 | COC(C)(C)CCCC(C)C=O (stereo not shown) [Material 125] |  | K (Log of liquid dish neat product liquid-air partition coefficient greater than or equal to −7) | 
30 | CC1CCC(C(C)(C)O)CC2=C1CCC2C (stereo not shown) [Material 292] |  |  | Log of liquid dish neat product liquid-air partition coefficient (Comment Code K/L) [1]: K (Log of liquid dish neat product liquid-air partition coefficient greater than or equal to −7)
31 | O=COCC=Cc1ccccc1 [Material 551] |  |  | Log of liquid dish neat product liquid-air partition coefficient (Comment Code K/L) [1]: K (Log of liquid dish neat product liquid-air partition coefficient greater than or equal to −7)
32 | C[C@@H]1CC[C@H]2C(C)(C)[C@H]3C[C@@]12CC1OC(C)(C)OC13C (stereo partly shown) [Material 674] | K (Log of liquid dish neat product liquid-air partition coefficient greater than or equal to −7) | K (Log of liquid dish neat product liquid-air partition coefficient greater than or equal to −7) | 
33 | C=C1CC[C@@H]2[C@H]([C@H]3[C@H]1CC[C@]3(C)O)C2(C)C [Material 1035] | K (Log of liquid dish neat product liquid-air partition coefficient greater than or equal to −7) | K (Log of liquid dish neat product liquid-air partition coefficient greater than or equal to −7) | 
34 | c1ccc(Oc2ccccc2)cc1 [Material 428] |  |  | Log of liquid dish neat product liquid-air partition coefficient (Comment Code K/L) [1]: K (Log of liquid dish neat product liquid-air partition coefficient greater than or equal to −7)
35 | C=C1C=CC(C(C)CCC=C(C)C)CC1 (stereo not shown) [Material 614] | K (Log of liquid dish neat product liquid-air partition coefficient greater than or equal to −7) |  | 
36 | CC/C=C\C/C=C/CCO [Material 1072] | K (Log of liquid dish neat product liquid-air partition coefficient greater than or equal to −7) |  | 
37 | CCc1ccccc1CC(C)(C)C=O [Material 356] |  |  | Log of liquid dish neat product liquid-air partition coefficient (Comment Code K/L) [1]: K (Log of liquid dish neat product liquid-air partition coefficient greater than or equal to −7)
38 | CC1=CC2CC(C3OCCO3)C1CC2C(C)C (stereo not shown) [Material 912] | K (Log of liquid dish neat product liquid-air partition coefficient greater than or equal to −7) |  | 
39 | C=Cc1ccc(O)cc1 [Material 789] |  | K (Log of liquid dish neat product liquid-air partition coefficient greater than or equal to −7) | 
40 | C=CC(C)=CCC=C(C)CCC=C(C)C [Material 710] | K (Log of liquid dish neat product liquid-air partition coefficient greater than or equal to −7) |  | 
41 | COc1ccc(COC=O)cc1 [Material 665] |  | K (Log of liquid dish neat product liquid-air partition coefficient greater than or equal to −7) | 
42 | C/C=C(\C)C(=O)OCCc1ccccc1 [Material 960] |  | K (Log of liquid dish neat product liquid-air partition coefficient greater than or equal to −7) | 
43 | COc1ccc(CC(C)=O)cc1 [Material 983] |  | K (Log of liquid dish neat product liquid-air partition coefficient greater than or equal to −7) | 
44 | C=C(C)C1CCC2(C)CCC=C(C)C2C1 (stereo not shown) [Material 774] | K (Log of liquid dish neat product liquid-air partition coefficient greater than or equal to −7) |  | 

Source: patent US20160090556A1, “PRODUCTS COMPRISING MALODOR REDUCTION MATERIALS” (The Procter & Gamble Company, priority 2014, published 2016)
